Data published in patent US12668572B2, “Degradable lipid for active molecule delivery and lipid nanoparticle thereof” (BEIJING CARRIUS BIO LTD., priority 2023, dated 2026).

Tested on: expression of luciferase (firefly luciferase mRNA) in liver
Assay: In vivo luciferase imaging (IVIS) of liver after tail vein administration of Fluc mRNA/LNPs
Set-up: species or system Balb/c mice
Details: 6 hours; for Average intensity (comparison with SM102 and MC3): N/P 7.5, tail vein, liver
Procedure: In order to achieve mRNA delivery at animal level, the inventors prepared mRNA/lipid nanoparticles using the method as follows: formulating each of the ionizable lipid compounds (YX8, YX17, YX31, YX27, YX28, YX35, YX29 or YX33) prepared in Example 1, cholesterol, DOPE and DMG-PEG2000 into a 10 mg/mL ethanol solution. Taking YX27 as an example, when preparing an mRNA/LNP complex in a single time, YX27 solution (1.6 mg) was measured and mixed with cholesterol, DOPE and DMG-PEG2000 according to a molar ratio of 50:38.5:10:1.5, and the total volume of the solution was allowed to reach 450 μl by supplementing ethanol. 150 μg of firefly luciferase mRNAs were taken and added to a sodium acetate buffer (50 mM, pH=5.2), and the total volume of the solution was 1350 μl. The ionizable lipid compound solution and the mRNA solution were mixed by introducing into a microfluidic machine (speed: 0.2 mL/min of ethanol solution, and 0.6 mL/min of sodium acetate buffer solution) to prepare lipid nanoparticles encapsulating mRNAs, which were dialyzed against PBS buffer for 2 hours, and the obtained samples were directly used for animal experiments. The ratio of the ionizable lipid compound YX27 to mRNAs was calculated according to the molar ratio (N/P) of the nitrogen atoms in YX27 to the phosphorus atoms in the phosphate skeleton of the mRNAs. In this example, N/P was 7.5.
In order to verify the delivery effect of the above Fluc mRNA/LNP preparation, YX27 LNPs encapsulating 150 μg/kg Fluc mRNAs were injected into 6-8 week-old female Balb/c mice by administration via tail vein, or YX27 LNPs encapsulating 250 μg/kg Fluc mRNAs were injected into the hind legs of mice by intramuscular administration; after 6 hours, 200 μl of D-Lucifin (with a mass fraction of 30%) was injected by intraperitoneal administration, and the expression and intensity of luciferase in the whole body, liver and muscle administration sites were detected by PerkinElmer IVIS Lumina III small animal in vivo optical imaging system. In order to study the effect of the hydrophobic chain length of lipid compounds on mRNA delivery efficiency, LNP samples encapsulating Fluc mRNAs were prepared using lipid compounds YX9, YX8, YX17 and YX31 respectively according to YX27 experimental operation, and the efficiency of luciferase expression in mice was studied.
In order to study the effect of the mixing ratio (N/P ratio) of ionizable lipids and mRNAs as the LNP components on the mRNA delivery efficiency, mixed samples of YX27 and luciferase mRNAs at N/P ratios of 7.5 and 9 were prepared according to the operation steps of Example 2, the mRNA delivery and the expression and intensity of luciferase in the whole body, liver and other sites were studied by administration via tail vein (the delivery results are shown in FIG. 3 and the table below).
LNPs containing SM102 or MC3 as the cationic lipid and luciferase mRNAs at an N/P ratio of 7.5 were prepared according to the operation steps of Example 2, in which the dose of Fluc mRNAs was 25 μg/kg, 50 μg/kg or 150 μg/kg respectively; and then the mRNA delivery by the prepared LNPs and the expression and intensity of luciferase in the whole body, liver and other sites were studied by administration via tail vein. The delivery results are shown in FIG. 4A, FIG. 4B and the table below.
In order to verify the expression efficiency of luciferase after administration of Fluc mRNA/LNPs as a function of time, YX27 solution encapsulating 150 μg/kg of Fluc mRNAs was injected into 6-8 week-old female Balb/c mice by administration via tail vein; 2 h, 4 h, 6 h, 18 h and 24 h after administration respectively, 200 μl of D-Lucifin (with a mass fraction of 30%) was injected by intraperitoneal administration, and the expression and intensity of luciferase in the whole body and liver site were detected by PerkinElmer IVIS Lumina III small animal in vivo optical imaging system. […]

CCCCCCCCCCCOC(=O)CCCCCN(CCO)CCCCCCCC(=O)OC(CCCCCCCC)CCCCCCCC [SM102]
Average intensity 50 μg/kg (lipids with different structures) (Fluc mRNA 50 μg/kg, N/P 7.5, liver tissue): 2.02E+09 p/s | Average intensity 150 μg/kg (lipids with different structures) (Fluc mRNA 150 μg/kg, N/P 7.5, liver tissue): 5.65E+09 p/s | Average intensity (comparison with SM102 and MC3) (Fluc mRNA dose 25 μg/kg): 1.20E+09 p/s | Average intensity (comparison with SM102 and MC3) (Fluc mRNA dose 50 μg/kg): 2.02E+09 p/s | Average intensity (comparison with SM102 and MC3) (Fluc mRNA dose 150 μg/kg): 5.65E+09 p/s

CCCCC/C=C\C/C=C\CCCCCCCCC(CCCCCCCC/C=C\C/C=C\CCCCC)OC(=O)CCCN(C)C [MC3, D-Lin-MC3-DMA]
Average intensity (comparison with SM102 and MC3) (Fluc mRNA dose 25 μg/kg): 4.28E+08 p/s | Average intensity (comparison with SM102 and MC3) (Fluc mRNA dose 50 μg/kg): 8.40E+08 p/s | Average intensity (comparison with SM102 and MC3) (Fluc mRNA dose 150 μg/kg): 7.16E+09 p/s
